Assay results as given in patent US20060046966A1, “Antipicornaviral compounds and compositions, their pharmaceutical uses, and materials for their synthesis” (Agouron Pharmaceuticals, Inc., priority 1998, published 2006).
pEC50: −log10 of the molar value. Like-named read-outs stand apart in the source and are kept apart here. Values belong to the compound of their own block, whether it stands above or below them.

Columns and labels:
[1] = biological target: T1, rhinovirus 3C protease from HRV serotype-14 (Human rhinovirus 14, UniProt P03303); assay: Inhibition of rhinovirus 3C protease (FRET assay), serotype 14; format: biochemical; settings: HRV serotype-14 3C protease; progress curves in enzyme start experiments; read-out: Protease Inhibition kobs/[I]
T1 construct: Recombinant rhinovirus 3C proteases; made in house
Protocol: Stock solutions (50 mM, in DMSO) of various compounds were prepared; dilutions were in the same solvent. Recombinant rhinovirus 3C proteases (see Birch et al., “Purification of recombinant human rhinovirus 14 3C protease expressed in Escherichia coli,” Protein Expr. Pur. 1995, 6(5), 609-618) from serotypes 14, 16, and 2 were prepared by the following standard chromatographic procedures: (1) ion exchange using Q Sepharose Fast Flow from Pharmacia; (2) affinity chromatography using Affi-Gel Blue from Biorad; and (3) sizing using Sephadex G-100 from Pharmacia. Each assay sample contained 2% DMSO, 50 mM tris pH 7.6, 1 mM EDTA, a test compound at the indicated concentration, approximately 1 μM substrate, and 50-100 nM protease. The kobs/I values were obtained from reactions initiated by addition of enzyme rather than substrate. RVP activity was measured in the fluorescence resonance energy transfer assay. The substrate was (N-terminal) DABCYL-(Gly-Arg-Ala-Val-Phe-Gln-Gly-Pro-Val-Gly)-EDANS. In the uncleaved peptide, the EDANS fluorescence was quenched by the proximal DABCYL moiety. When the peptide was cleaved, the quenching was relieved, and activity was measured as an increase in fluorescence signal. In Table 1, all data are for rhinovirus 3C protease from HRV serotype-14 (produced from the infectious cDNA clone constructed by Dr. Robert Rueckert, Institute for Molecular Virology, University of Wisconsin, Madison, Wis.). […] The data in the column designated kobs/[I] were measured from progress curves in enzyme start experiments.

HRV-14 = assay: Antirhinoviral H1-HeLa cell culture assay, HRV-14; format: cell-based, human rhinovirus; settings: Rhinovirus B, HRV14, H1-HeLa, HRV serotype-14, H1-HeLa cells
Protocol: (§1) In this cell protection assay, the ability of compounds to protect cells against HRV infection was measured by the XTT dye reduction method, which is described in Weislow et al., J. Natl. Cancer Inst. 1989, vol. 81, 577-586.
(§2) H1-HeLa cells were infected with HRV-14 at a multiplicity of infection (m.o.i.) of 0.13 (virus particles/cell) or mock-infected with medium only. Infected or mock-infected cells were resuspended at 8×10^5 cells per mL, and incubated with appropriate concentrations of the compounds to be tested. Two days later, XTT/PMS was added to test plates and the amount of formazan produced was quantified spectrophotometrically at 450/650 nm. The EC50 value was calculated as the concentration of compound that increased the percentage of formazan production in compound-treated, virus-infected cells to 50% of that produced by compound-free, mock-infected cells. The 50% cytotoxic dose (CC50) was calculated as the concentration of compound that decreased the percentage of formazan produced in compound-treated, mock-infected cells to 50% of that produced by compound-free, mock-infected cells. The therapeutic index (TI) was calculated by dividing the CC50 value by the EC50 value.
(§3) All strains of human rhinovirus (HRV) for use in this assay were purchased from American Type Culture Collection (ATCC), except for HRV serotype-14 (produced from the infectious cDNA clone constructed by Dr. Robert Rueckert, Institute for Molecular Virology, University of Wisconsin, Madison, Wis.). HRV stocks were propagated and viral assays were performed in H1-HeLa cells (ATCC). Cells were grown in minimal essential medium with 10% fetal bovine serum, available from Life Technologies (Gaithersburg, Md.).
(§4) The compounds were tested against control compounds WIN 51711, WIN 52084, and WIN 54954 (obtained from Sterling-Winthrop Pharmaceuticals), Pirodavir (obtained from Janssen Pharmaceuticals), and Pleconaril (prepared according to the method described in Diana et al., J. Med. Chem 1995, vol. 38, 1355). Antiviral data obtained for the test compounds are shown in Tables 1 and 3, where all data are for HRV serotype-14 unless otherwise noted in parentheses.

HRV (2) = assay: Antirhinoviral H1-HeLa cell culture assay, HRV serotype 2; format: cell-based, human rhinovirus; settings: Human rhinovirus sp., H1-HeLa, H1-HeLa cells, XTT
Protocol: as §1, §2, §3, §4

HRV (1A) = assay: Antirhinoviral H1-HeLa cell culture assay, HRV serotype 1A; format: cell-based; settings: Human rhinovirus sp., H1-HeLa cells, XTT
Protocol: as §1, §2, §3, §4

HRV (89) = assay: Antirhinoviral H1-HeLa cell culture assay, HRV serotype 89; format: cell-based, human rhinovirus; settings: Human rhinovirus sp., H1-HeLa cells, XTT
Protocol: as §1, §2, §3, §4

HRV (16) = assay: Antirhinoviral H1-HeLa cell culture assay, HRV serotype 16; format: cell-based; settings: Human rhinovirus sp., H1-HeLa cells, XTT
Protocol: as §1, §2, §3
(§5) The compounds were tested against control compounds WIN 51711, WIN 52084, and WIN 54954 (obtained from Sterling-Winthrop Pharmaceuticals), Pirodavir (obtained from Janssen Pharmaceuticals), and Pleconaril (prepared according to the method described in Diana et al., J. Med. Chem 1995, vol. 38, 1355). […]

HRV (39) = assay: Antirhinoviral H1-HeLa cell culture assay, HRV serotype 39; format: cell-based, human rhinovirus; settings: Human rhinovirus sp., H1-HeLa cells, XTT
Protocol: as §1, §2, §3, §5

HRV (10) = assay: Antirhinoviral H1-HeLa cell culture assay, HRV serotype 10; format: cell-based, human rhinovirus; settings: Human rhinovirus sp., H1-HeLa, H1-HeLa cells, XTT
Protocol: as §1, §2, §3, §4

HRV (3) = assay: Antirhinoviral H1-HeLa cell culture assay, HRV serotype 3; format: cell-based, human rhinovirus; settings: Human rhinovirus sp., H1-HeLa, H1-HeLa cells, XTT
Protocol: as §1, §2, §3, §5

HRV (9) = assay: Antirhinoviral H1-HeLa cell culture assay, HRV serotype 9; format: cell-based, human rhinovirus; settings: Human rhinovirus sp., H1-HeLa cells, XTT
Protocol: as §1, §2, §3, §5

HRV (12) = assay: Antirhinoviral H1-HeLa cell culture assay, HRV serotype 12; format: cell-based; settings: Human rhinovirus sp., H1-HeLa cells, XTT
Protocol: as §1
as §2, with “value. […]” for “value.”

HRV (13) = assay: Antirhinoviral H1-HeLa cell culture assay, HRV serotype 13; format: cell-based, human rhinovirus; settings: Human rhinovirus sp., H1-HeLa, H1-HeLa cells, XTT
Protocol: as §1, §2, §3, §5

HRV (17) = assay: Antirhinoviral H1-HeLa cell culture assay, HRV serotype 17; format: cell-based, human rhinovirus; settings: Human rhinovirus sp., H1-HeLa cells, XTT
Protocol: as §1, §2, §3, §5

HRV (25) = assay: Antirhinoviral H1-HeLa cell culture assay, HRV serotype 25; format: cell-based; settings: Human rhinovirus sp., H1-HeLa cells, XTT
Protocol: as §1
as §2, with “value. […]” for “value.”

HRV (30) = assay: Antirhinoviral H1-HeLa cell culture assay, HRV serotype 30; format: cell-based; settings: Human rhinovirus sp., H1-HeLa cells, XTT
Protocol: as §1
as §2, with “value. […]” for “value.”

HRV (38) = assay: Antirhinoviral H1-HeLa cell culture assay, HRV serotype 38; format: cell-based; settings: Human rhinovirus sp., H1-HeLa cells, XTT
Protocol: as §1
as §2, with “value. […]” for “value.”

HRV (87) = assay: Antirhinoviral H1-HeLa cell culture assay, HRV serotype 87; format: cell-based; settings: Human rhinovirus sp., H1-HeLa cells, XTT
Protocol: as §1
as §2, with “value. […]” for “value.”

[2] = tested on: Coxsackievirus type A-21 (CAV-21); assay: Anticoxsackieviral cell culture assay, CAV-21; format: cell-based; settings: 48 h, Strain CAV-21, H1-HeLa cells, two days, XTT, read-out: EC50
Protocol: (§6) Coxsackievirus types A-21 (CAV-21) and B3 (CVB-3) were purchased from American Type Culture Collection (ATCC, Rockville, Md.). Virus stocks were propagated and antiviral assays were performed in H1-HeLa cells (ATCC). Cells were grown in minimal essential medium with 10% fetal bovine serum (Life Technologies, Gaithersburg, Md.).
(§7) The ability of compounds to protect cells against either CAV-21 or CVB-3 infection was measured by the XTT dye reduction method. This method is described in Weislow et al., J. Natl. Cancer Inst. 1989, vol. 81, 577-586. H1-HeLa cells were infected with CAV-21 or CVB-3 at a multiplicity of infection (m.o.i.) of 0.025 or 0.075, respectively, or mock-infected with medium only. H1-HeLa cells were plated at 4×10^4 cells per well in a 96-well plate and incubated with appropriate concentrations of the test compound. One day (CVB-3) or two days (CAV-21) later, XTT/PMS was added to test plates and the amount of formazan produced was quantified spectrophotometrically at 450/650 nm. The EC50 was calculated as the concentration of compound that increased the formazan production in compound-treated, virus-infected cells to 50% of that produced by compound-free, uninfected cells. The 50% cytotoxic dose (CC50) was calculated as the concentration of compound that decreased formazan production in compound-treated, uninfected cells to 50% of that produced in compound-free, uninfected cells. The therapeutic index TI) was calculated by dividing the CC50 by the EC50.
(§8) The compounds were tested against control compounds WIN 54954 (obtained from Sterling-Winthrop Pharmaceuticals), Pirodavir (obtained from Janssen Pharmaceuticals), and Pleconaril (prepared according to Diana et al., J. Med. Chem. 1995, 38, 1355).

[3] = tested on: Coxsackievirus type B3 (CVB-3); assay: Anticoxsackieviral cell culture assay, CVB-3; format: cell-based; settings: 24 h, Strain CVB-3, H1-HeLa cells, one day, XTT, read-out: EC50
Protocol: as §6, §7, §8

[4] = tested on: Echovirus type 11 (EV 11); assay: Anti-echoviral cell culture assay, EV 11; format: cell-based; settings: Enterovirus B, MRC5, 96 h; Strain EV-11; MRC-5 cells; four days; XTT; read-out: EC50
Protocol: (§9) Echovirus type 11 (EV 11) and enterovirus type 70 (EV 70) were purchased from ATCC (Rockville, Md.). Virus stocks were propagated and antiviral assays were performed in MRC-5 cells (ATCC). Cells were grown in minimal essential medium with 10% fetal bovine serum (Life Technologies, Gaithersburg, Md.).
(§10) The ability of compounds to protect cells against either EV 11 or EV 70 infection was measured by the XTT dye reduction method (Weislow et al., J. Natl. Cancer Inst. 1989, vol. 81, 577-586). MRC-5 cells were infected with EV 11 or EV 70 at an m.o.i. of 0.003 or 0.004, respectively, or mock-infected with medium only. Infected or uninfected cells were added at 1×10^4 cells per well and incubated with appropriate concentrations of compound. Four days later, XTT/PMS was added to test plates, and the amount of formazan produced was quantified spectrophotometrically at 450/650 nm. The EC50 was calculated as the concentration of compound that increased the formazan production in compound-treated, virus-infected cells to 50% of that produced by compound-free, uninfected cells. The 50% cytotoxic dose (CC50) was calculated as the concentration of compound that decreased formazan production in compound-treated, uninfected cells to 50% of that produced in compound-free, uninfected cells. The therapeutic index (TI) was calculated by dividing the CC50 by the EC50.
The compounds were tested against control compounds Pirodavir (obtained from Janssen Pharmaceuticals) and Pleconaril (prepared according to Diana et al., J. Med. Chem. 1995, vol. 38, 1355). Antiviral data obtained for the test compounds against strain EV 11 and EV 70 are shown below in Table 5.

[5] = tested on: enterovirus type 70 (EV 70); assay: Anti-enteroviral cell culture assay, EV 70; format: cell-based; settings: Enterovirus D, MRC5, 96 h; Strain EV-70; MRC-5 cells; four days; XTT
Protocol: as §9
as §10, with “EC50. […]” for “EC50.”

H1-HeLa cells = assay: Cytotoxicity in uninfected H1-HeLa cells (anticoxsackieviral assay, XTT); format: cell-based; settings: 50% cytotoxic dose, Table 4
Protocol: as §7

T1 sequence (P03303 1538-1719): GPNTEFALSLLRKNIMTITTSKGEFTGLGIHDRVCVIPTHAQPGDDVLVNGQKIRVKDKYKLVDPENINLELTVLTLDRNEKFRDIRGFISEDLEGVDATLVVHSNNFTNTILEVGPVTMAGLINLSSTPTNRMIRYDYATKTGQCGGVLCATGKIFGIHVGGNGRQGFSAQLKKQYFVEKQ

kinact/KI [1]: 270000 M⁻¹ s⁻¹
pEC50 (HRV-14; Table 1, XTT dye reduction, read-out: Cell Protection EC50): 8.70
pEC50 (HRV-14; Table 3, XTT, read-out: EC50): 8.70
pEC50 (HRV (2)): 8.40
pEC50 (HRV (1A)): 8.00
pEC50 (HRV (89)): 8.40
pEC50 (HRV (16)): 8.00
pEC50 (HRV (39)): 8.00
pEC50 (HRV (10)): 7.70
pEC50 (HRV (3)): 7.70
pEC50 (HRV (9)): 8.00
pEC50 (HRV (12)): 7.40
pEC50 (HRV (13)): 8.15
pEC50 (HRV (17)): 8.15
pEC50 (HRV (25)): 7.15
pEC50 (HRV (30)): 7.52
pEC50 (HRV (38)): 7.30
pEC50 (HRV (87)): 7.70
Structure (SMILES): CCOC(=O)/C=C/[C@H](C[C@@H]1CCNC1=O)NC(=O)[C@H](Cc1ccc(F)cc1)OC(=O)[C@@H](NC(=O)c1cc(C)on1)C(C)C [Compound C-2, Ethyl-3-{(5′-Methylisoxazole-3′-carbonyl)-L-Val-O-L-(4-F-Phe)-L-((S)-Pyrrol-Ala)}-E-Propenoate]

pEC50 (HRV-14; Table 3, XTT, read-out: EC50): 7.52
pEC50 [2]: < 4.00
pEC50 [3]: < 4.00
Structure (SMILES): CCOC(=O)c1ccc(OCCC2CCN(c3ccc(C)nn3)CC2)cc1 [Pirodavir, reference compound]
pEC50 [4]: 5.43
pEC50 [5]: 7.22

Structure (SMILES): Cc1cc(CCCCCOc2c(Cl)cc(C3=NCCO3)cc2Cl)on1 [WIN 54954]
CC50 (H1-HeLa cells): > 100000 nM
